The record followed here is patent US9371295B2, “Compounds for use in the treatment of disorders that are ameliorated by inhibition of HDAC” (IRBM—Science Park S.p.A., priority 2012, dated 2016).

Series [1] deals with K562 cells. Put plainly: Antiproliferative effect on K562 cells (cell number after 5 days). The format is cell-based. The conditions noted are these: Homo sapiens, 120 h, 5 days culture, average of three experiments. The method, then: The biological activity of the compounds of the present application was evaluated by examining the capacity to modulate the expression of γ-globin genes in the human K562 cell line, which is capable of differentiating in the erythroid manner by expressing genes for γ-globin if treated with modifiers of the biological response that are suitable for the purpose (Bianchi et al, J. Haematol., 113, 4, p. 951-961, 2001). The human K562 cells were cultured in RPMI 1640 medium (Sigma, St Louis, Mo., USA) supplemented with 10% foetal bovine serum (FBS; Analitical de Mori, Milan, Italy), 100 units/mL penicillin and 100 μg/mL streptomycin. Cell growth was determined according to cell number/ml, using a cell counter (Coulter Electronics, Hialeah, Fla., USA). For experiments, K562 cell cultures were initiated at 3×10^4/mL and the chemical inducers at the indicated concentrations added. Following 3-5 days incubation without a medium change erythroid differentiation was determined by staining the cells in a solution containing 0.2% benzidine in 0.5 M glacial acetic acid, 10% H2O2. Benzidine positivity indicates the presence of intracellular Hb.
(§1) The erythroid differentiation of K562 cells was investigated following treatment with selected compounds of the invention. The effect on cell proliferation was first determined for all tested molecules by culture of K562 cells in the presence of increasing concentration of the compounds. The cell number per sample was then determined after 3, 4 and 5 days. The IC50 values reported in Table 3 for the antiproliferative effect were calculated from the concentration of the compounds necessary to decrease the cell number to 50% of the values obtained in control untreated K562 cell cultures, after a 5 days culture period. Erythroid differentiation was measured by benzidine staining after 5, 6 and 7 days of cell culture and by quantitative reverse transcriptase polymerase-chain reaction (RT-qPCR) to quantify the expression of γ-globin mRNA. Different concentrations of tested compounds were employed because of their differing antiproliferative effects; accordingly, concentrations were chosen to maximize the erythroid induction effect without extensive reduction of cell viability. In Table 3 the % of benzidine positive cells and the increase in γ-globin mRNA assayed by RT-qPCR after 6 days of culture period are reported.

A short description of series [2]: Mouse in vivo pharmacokinetics, oral dose. As to conditions: plasma. On the procedure: Compounds of the invention were evaluated in in vitro and in vivo pharmacokinetic studies.
The subject of series [3] is γ-globin mRNA in K562 cells. Put plainly: γ-globin mRNA in K562 cells by quantitative RT-PCR. The conditions noted are these: 6 days. The format is cell-based, human. On the procedure:
The expression of the genes encoding for γ-globin was evaluated by quantitative RT-PCR. The analyses were carried out on material extracted from cells treated for 6 days in the conditions indicated.
Total RNA was extracted from cells by the use of TRI Reagent RNA isolation Reagent (Sigma Aldrich). All solutions and laboratory equipment were certified RNAse free. Following the manufacturers instructions, 1 mL of the reagent was added to 5*10^6 cells. After a 3 minute incubation at room temperature, 20 μg of glycogen and 200 μL of chloroform were added. The samples were then centrifuged and the aqueous phase recovered. This phase was diluted with one volume of isopropanol and centrifuged at 4° C. to let the RNA precipitate. After a washing step with methanol, the extracted RNA was dried and then resuspended in RNAse free water. The purified RNAs were stored at −80° C.
In order to determine the quality of the extracted RNA, electrophoresis runs on 0.8% agarose gel were carried out. The amount of the recovered RNA was quantified by its absorbance at 260 nm. Protein contamination quality control was carried out by ensuring that the 260/280 nm absorbance ratio was greater than 1.8
cDNA production from the extracted RNA was carried out as per ImProm-II™ Reverse Transcription System (Promega). 0.5 μg di RNA was retro-transcribed by using random hexamer. The produced cDNA was then stored at −80° C. until use.
The expression of the genes encoding for γ-globin was evaluated by quantitative RT-PCR, using the following primer and probe oligonucleotides (FAM=6-carboxy fluorescein, TAMRA=6-carboxy-N,N,N′,N′-tetramethylrhodamine):
For real-time PCR analysis we used as reference gene the endogenous control human GAPDH kit (Applied Biosystems).
as §1

Series [4] concerns the target T1, HDAC1 (Homo sapiens, UniProt Q13547).
T1 construct: made in house
Put plainly: HDAC1 assay (Fluor-de-Lys fluorescent deacetylase assay). The series is classed as biochemical. The conditions noted are these: read-out: hHDAC IC50. In short, it runs like this:
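Serially diluted compounds were pre-incubated with purified FLAG-tagged HDAC1 (1-2 nM final; from transfected HeLa cells) or HeLa nuclear extract, then given the Fluor-de-Lys acetyl-lysine substrate/developer; deacetylation read as fluorescence. Reactions were stopped with TSA (3 uM final).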

Series [5] deals with HDAC in Hela cells. Put plainly: HDAC Hela Cell Based assay.

T1 sequence (Q13547 whole entry): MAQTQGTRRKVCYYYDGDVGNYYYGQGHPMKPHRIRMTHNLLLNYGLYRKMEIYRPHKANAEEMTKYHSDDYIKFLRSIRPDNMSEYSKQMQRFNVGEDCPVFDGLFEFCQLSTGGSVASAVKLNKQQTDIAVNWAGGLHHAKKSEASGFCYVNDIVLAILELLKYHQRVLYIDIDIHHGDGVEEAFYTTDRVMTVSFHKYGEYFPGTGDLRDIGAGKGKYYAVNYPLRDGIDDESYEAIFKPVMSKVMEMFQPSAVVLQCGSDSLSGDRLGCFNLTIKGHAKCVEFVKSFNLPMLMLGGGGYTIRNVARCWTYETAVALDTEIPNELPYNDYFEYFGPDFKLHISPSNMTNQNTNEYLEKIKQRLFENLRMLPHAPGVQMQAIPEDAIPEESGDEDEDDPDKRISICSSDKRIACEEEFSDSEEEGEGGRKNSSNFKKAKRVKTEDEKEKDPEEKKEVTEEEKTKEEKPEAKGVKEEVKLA

By IC50 is commonly meant the point on the concentration scale where inhibition reaches its midpoint. What is called AUC is the area under the concentration-time curve, a measure of exposure. A low value points to low exposure. By Cmax is commonly meant the peak of the concentration-time curve. On to `CCC(=O)CCCCC[C@H](NC(=O)C1CN(C)C1)c1ncc(-c2cc3ccccc3nc2OC)o1` [Compound 2, (S)-N-(1-(5-(2-methoxyquinolin-3-yl)oxazol-2-yl)-7-oxononyl)-1-methylazetidine-3-carboxamide], for which the figures for the IC50 in series [1], in series [4] and in series [5] were 75 nM, under 100 nM and under 100 nM, respectively. For the same compound, the AUC in series [2] (po 20 mg/kg) is 22.4 µM·h. The same compound showed a Cmax in series [2] (po 20 mg/kg) of 1870 nM. Also, in series [3] (70 nM), the “γ-globin mRNA content (fold induction)” value came to 1.75 fold induction.

In the case of `CCC(=O)CCCCC[C@H](NC(=O)C(=O)N1CCN(C)CC1)c1ncc(-c2cc3ccccc3nc2OC)o1` [Compound 37, (S)-N-(1-(5-(2-methoxyquinolin-3-yl)oxazol-2-yl)-7-oxononyl)-2-(4-methylpiperazin-1-yl)-2-oxoacetamide], the IC50 in series [1] is 600 nM; in series [4] it was under 100 nM; in series [5], 100 to 1000 nM. Also, the “γ-globin mRNA content (fold induction)” value in series [3] (1600 nM) is on record as 7.84 fold induction.

Regarding `CCC(=O)CCCCC[C@H](NC(=O)C1(F)CN(C)C1)c1ncc(-c2cc3ccccc3nc2OC)o1` [Compound 67, (S)-3-fluoro-N-(1-(5-(2-methoxyquinolin-3-yl)oxazol-2-yl)-7-oxononyl)-1-methylazetidine-3-carboxamide], the figures for the IC50 in series [1], in series [4] and in series [5] were 950 nM, under 100 nM and 100 to 1000 nM, respectively. In series [3] (1800 nM), the “γ-globin mRNA content (fold induction)” value is given as 5.08 fold induction.

As to `CCC(=O)CCCCC[C@H](NC(=O)Cn1nc(C)nc1C)c1ncc(-c2cc3ccccc3nc2OC)o1` [Compound 80, (S)-2-(3,5-dimethyl-1H-1,2,4-triazol-1-yl)-N-(1-(5-(2-methoxyquinolin-3-yl)oxazol-2-yl)-7-oxononyl)acetamide], the half-maximal inhibitory concentration (IC50) in series [1] was 250 nM; in series [4], under 100 nM; in series [5] it was 100 to 1000 nM. Besides, the “γ-globin mRNA content (fold induction)” value in series [3] (200 nM) was 1.03 fold induction.

Turning to `CCC(=O)CCCCC[C@H](NC(=O)c1cnc(CN2CCCC2)s1)c1ncc(-c2cc3ccccc3nc2OC)o1` [Compound 82, (S)-N-(1-(5-(2-methoxyquinolin-3-yl)oxazol-2-yl)-7-oxononyl)-2-(pyrrolidin-1-ylmethyl)thiazole-5-carboxamide], the IC50 was over 400 nM in series [1], under 100 nM in series [4] and under 100 nM in series [5]. Moreover, the “γ-globin mRNA content (fold induction)” value in series [3] (260 nM) is reported as 0.96 fold induction.

Consider `CCC(=O)CCCCC[C@H](NC(=O)C1CN(C)C1)c1ncc(-c2cc3ccccc3n(C)c2=O)o1` [Compound 92, (S)-1-methyl-N-(1-(5-(1-methyl-2-oxo-1,2-dihydroquinolin-3-yl)oxazol-2-yl)-7-oxononyl)azetidine-3-carboxamide], for which the figures for the IC50 in series [1], in series [4] and in series [5] were 50 nM, under 100 nM and under 100 nM, respectively. Moreover, the AUC in series [2] (po 10 mg/kg) turned out to be 0.32 µM·h. The same compound came in with a Cmax in series [2] (po 10 mg/kg) of 100 nM. Moreover, the “γ-globin mRNA content (fold induction)” value in series [3] (40 nM) is listed as 1.24 fold induction.

In the case of `CCC(=O)CCCCC[C@H](NC(=O)CCN(C)C)c1ncc(-c2cc3ccccc3n(C)c2=O)o1` [Compound 106, (S)-3-(dimethylamino)-N-(1-(5-(1-methyl-2-oxo-1,2-dihydroquinolin-3-yl)oxazol-2-yl)-7-oxononyl)propanamide], the IC50 in series [1] is 41 nM; in series [4] it was under 100 nM; in series [5], under 100 nM. Also, in series [3] (60 nM), the “γ-globin mRNA content (fold induction)” value was found to be 2.01 fold induction.

`CCC(=O)CCCCC[C@H](NC(=O)C(C)(C)N(C)C)c1ncc(-c2cc3ccccc3n(C)c2=O)o1` [Compound 107, (S)-2-(dimethylamino)-2-methyl-N-(1-(5-(1-methyl-2-oxo-1,2-dihydroquinolin-3-yl)oxazol-2-yl)-7-oxononyl)propanamide]: the IC50 was 24 nM in series [1], under 100 nM in series [4] and under 100 nM in series [5]. The “γ-globin mRNA content (fold induction)” value in series [3] (40 nM) was determined as 1.87 fold induction.

Take `CCC(=O)CCCCC[C@H](NC(=O)C1CCN(C)CC1)c1ncc(-c2cc3ccccc3n(C)c2=O)o1` [Compound 109, (S)-1-methyl-N-(1-(5-(1-methyl-2-oxo-1,2-dihydroquinolin-3-yl)oxazol-2-yl)-7-oxononyl)piperidine-4-carboxamide]: the IC50 in series [1] is over 50 nM; in series [4] it was under 100 nM; in series [5], under 100 nM. Further, the “γ-globin mRNA content (fold induction)” value in series [3] (60 nM) is 1.31 fold induction.

In the case of `CCC(=O)CCCCC[C@H](NC(=O)c1cncs1)c1ncc(-c2cc3ccccc3n(C)c2=O)o1` [Compound 110, (S)-N-(1-(5-(1-methyl-2-oxo-1,2-dihydroquinolin-3-yl)oxazol-2-yl)-7-oxononyl)thiazole-5-carboxamide], the IC50 in series [1] was 200 nM; in series [4] it was under 100 nM; in series [5], under 100 nM. Further, in series [3] (300 nM), the “γ-globin mRNA content (fold induction)” value is recorded as 1.19 fold induction.

`CCC(=O)CCCCC[C@H](NC(=O)C1(N(C)C)CCCC1)c1ncc(-c2cc3ccccc3n(C)c2=O)o1` [Compound 111, (S)-1-(dimethylamino)-N-(1-(5-(1-methyl-2-oxo-1,2-dihydroquinolin-3-yl)oxazol-2-yl)-7-oxononyl)cyclopentanecarboxamide]: the concentration for half-maximal inhibition (IC50) is 47 nM in series [1], under 100 nM in series [4] and under 100 nM in series [5]. Also, the “γ-globin mRNA content (fold induction)” value in series [3] (60 nM) was 2.51 fold induction.
